{"source": "patent EP2876156A1", "about": "(COMMISSARIAT A L'ENERGIE ATOMIQUE ET AUX ENERGIES …, priority 2013, dated 2015)", "key": {"[1]": {"test_system": "ENZ1 (SEQ ID NO:1) and ENZ2 (SEQ ID NO:2)", "test": "Cascade dihydroxylation of L-lysine, conversion by HPLC (protocol A)", "type": "biochemical, Catenulispora acidiphila; Flavobacterium johnsoniae", "settings": "ENZ1 0.13 mg/mL 3h, then ENZ2 added, 18 h, room temperature", "method": "(§1) Enzymatic reaction medium (0.2 µmole, leq.), borate buffer 0,2M pH 7.7 (80 µL) and Fmoc-Cl solution7.5 mM in acetone (100 µL, 0.75 µmole, 3.75 eq) were hand shaked in a closed 1.50 mL eppendorf for one minute. The aqueous layer was extracted with petroleum ether (3*1 mL) to eliminate excess of Fmoc-Cl. 70 µL of the aqueous phase were withdrawn, diluted with 70 µL of acetonitrile and injected into the HPLC. For substrates with two amine functions, 100 µL of Fmoc-Cl solution 15 mM were used.\n(§2) Conditions for HPLC analysis: Atlantis® T3 (3 µm 4.5*150 mm) at 35°C with the gradient 50-86% eluent B (MeCN + 0.1% TFA) and eluent A (H2O + 0.1% TFA) in 20 min at 1 mL/min.\nEnzymatic reaction was carried out in 250 mL glass erlenmeyer flask for a total volume of 4*10 mL. Water (5.6 mL), Hepes buffer 1M pH 7.50 (0.5 mL, 50 mM), L-lysine […] (1 mL, 10 mM), α-ketoglutarate 150 mM (1 mL, 15 mM), sodium ascorbate 100 mM (0.25 mL, 2,5 mM), ammonium Iron(II) sulfate hexahydrate 10 mM (1 mL, 1 mM) were poured into the erlenmeyer. The reaction was started by ENZ1 addition (1.99 mg/mL, 0.65 mL, final concentration 0.13 mg/mL). […] The conversion (90%) was determined by HPLC after derivatization with Fmoc-Cl according to protocol A. The assembled reaction mixtures were acidified with 200 µL of TFA then centrifuged. […]"}, "ENZ1 SEQ ID N°1": {"target": "T1, ENZ1 SEQ ID N°1 (Catenulispora acidiphila, UniProt C7QJ42)", "T1 construct": "His6 (hexahistidine, inserted after the initial methionine) (N); made in house; host or cells: E. coli BL21(DE3) plysE", "T1 sequence (C7QJ42 1-358)": "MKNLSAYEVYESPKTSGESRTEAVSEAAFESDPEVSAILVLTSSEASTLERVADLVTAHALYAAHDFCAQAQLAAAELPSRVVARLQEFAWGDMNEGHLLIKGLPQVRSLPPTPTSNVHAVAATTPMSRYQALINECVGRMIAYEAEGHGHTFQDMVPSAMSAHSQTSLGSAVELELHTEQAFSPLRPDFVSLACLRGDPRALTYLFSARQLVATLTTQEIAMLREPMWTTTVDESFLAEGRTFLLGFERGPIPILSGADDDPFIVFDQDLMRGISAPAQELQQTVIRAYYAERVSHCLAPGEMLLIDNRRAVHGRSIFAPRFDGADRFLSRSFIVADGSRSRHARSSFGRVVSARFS", "test": "Substrate selectivity screening of hydroxylase (conversion by HPLC after Fmoc-Cl derivatization)", "type": "biochemical", "settings": "enzyme 0.08 mg/mL, molar ratio α-ketoglutarate/substrate 15/10, Hepes buffer 50 mM pH 7,5, Mohr's salt 1mM, without sodium ascorbate, room temperature, three hours", "method": "as §1, §2\n(§3) Enzymes (0.08 mg/mL) were screened against substrates (molar ratio α-ketoglutarate/substrate 15/10) in Hepes buffer 50 mM pH 7,5, with Mohr's salt at 1mM and without sodium ascorbate, at room temperature for three hours. The potential conversions of the substrates were determined by HPLC after Fmoc-Cl derivatization as section III here above."}, "ENZ4 SEQ ID NO:4": {"target": "T2, ENZ4 SEQ ID NO:4 (Catenulispora acidiphila, UniProt C7Q942)", "T2 construct": "His6 (hexahistidine, inserted after the initial methionine) (N); made in house; host or cells: E. coli BL21(DE3) plysE", "T2 sequence (C7Q942 1-343)": "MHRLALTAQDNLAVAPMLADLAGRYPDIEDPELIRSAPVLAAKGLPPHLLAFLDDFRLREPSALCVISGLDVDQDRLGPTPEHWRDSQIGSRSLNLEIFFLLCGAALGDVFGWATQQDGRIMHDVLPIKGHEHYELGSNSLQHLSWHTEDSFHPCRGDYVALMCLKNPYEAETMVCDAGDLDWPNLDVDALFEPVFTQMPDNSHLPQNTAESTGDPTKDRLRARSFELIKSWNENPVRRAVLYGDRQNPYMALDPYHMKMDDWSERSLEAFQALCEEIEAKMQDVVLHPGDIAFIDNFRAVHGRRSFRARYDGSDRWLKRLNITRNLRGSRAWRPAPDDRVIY", "test": "Substrate selectivity screening of hydroxylase (conversion by HPLC after Fmoc-Cl derivatization)", "type": "biochemical", "settings": "enzyme 0.08 mg/mL, molar ratio α-ketoglutarate/substrate 15/10, Hepes buffer 50 mM pH 7,5, Mohr's salt 1mM, without sodium ascorbate, room temperature, three hours", "method": "as §1, §2, §3"}, "ENZ2 SEQ ID NO:2": {"target": "T3, ENZ2 SEQ ID NO:2 (Flavobacterium johnsoniae, UniProt A5FF23)", "T3 construct": "His6 (hexahistidine, inserted after the initial methionine) (N); made in house; host or cells: E. coli BL21(DE3) plysE", "T3 sequence (A5FF23 1-370)": "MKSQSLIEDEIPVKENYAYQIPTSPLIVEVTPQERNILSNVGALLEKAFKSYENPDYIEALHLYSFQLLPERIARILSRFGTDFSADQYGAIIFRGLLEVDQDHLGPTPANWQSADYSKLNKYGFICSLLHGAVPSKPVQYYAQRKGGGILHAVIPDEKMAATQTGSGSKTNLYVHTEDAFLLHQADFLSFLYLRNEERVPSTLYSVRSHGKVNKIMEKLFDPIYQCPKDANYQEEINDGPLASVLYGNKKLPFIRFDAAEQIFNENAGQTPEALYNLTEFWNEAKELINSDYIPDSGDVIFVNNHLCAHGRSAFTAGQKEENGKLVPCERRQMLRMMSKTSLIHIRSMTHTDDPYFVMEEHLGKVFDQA", "type": "biochemical", "settings": "enzyme 0.08 mg/mL, molar ratio α-ketoglutarate/substrate 15/10, Hepes buffer 50 mM pH 7,5, Mohr's salt 1mM, without sodium ascorbate, room temperature, three hours", "outline": "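Enzymes at 0.08 mg/mL incubated with substrates (α-ketoglutarate/substrate 15/10) in 50 mM Hepes pH 7.5 with 1 mM Mohr's salt, no ascorbate, 3 h at room temperature. Conversion measured by reverse-phase HPLC after Fmoc-Cl derivatization in borate pH 7.7.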"}}, "data": [{"smiles": "NCCCC[C@H](N)C(=O)O", "note": "[L-lysine]", "values": [{"measurement": "conversion (L-lysine dihydroxylation to 3,4-di-hydroxy-L-lysine)", "setting": "[1]", "value": 90, "unit": "%"}, {"measurement": "potential conversions of the substrates, ENZ1 SEQ ID N°1", "setting": "ENZ1 SEQ ID N°1", "value": "positive"}, {"measurement": "potential conversions of the substrates, ENZ4 SEQ ID NO:4", "setting": "ENZ4 SEQ ID NO:4", "value": "negative"}, {"measurement": "potential conversions of the substrates, ENZ2 SEQ ID NO:2", "setting": "ENZ2 SEQ ID NO:2", "value": "positive"}]}]}
